Results: patent US20080003438A1, “Heterocyclic siloxanes for use in biocidal coatings and materials” (Auburn University, priority 2002, published 2008)

Columns and labels:
[1] = Chlorine loading of coated, chlorinated surfaces by iodometric/thiosulfate titration; format: physicochemical; conditions: for average chlorine loading on the swatches: 10% CLOROX 30 min; for chlorine content: chlorinated in household washing machine; for chlorine bound to hard surface: 10% CLOROX
Protocol: Swatches of Style 400 Bleached 100% Cotton Print Cloth (Testfabrics, Inc.) were treated with 3-triethoxysilylpropyl-5,5-dimethylhydantoin, prepared as described in Example 1, in the following manner. A treatment bath was prepared containing 5.0 g of 3-triethoxysilylpropyl-5,5-dimethylhydantoin, 3.0 g of potassium thiocyanate, 50 mL of ethanol, and 50 mL of water. After 1 hour of equilibration of the bath mixture, the cotton swatches were soaked in the bath for 10 min. After partially drying in air at ambient temperature, the swatches were cured for 1 hour at 95° C. The swatches were then soaked in a 0.5% liquid detergent solution for 15 min, rinsed with tap water, and allowed to dry in air at ambient temperature. […] The swatches were stored in a vacuum desiccator until use.
The siloxane polymer described above was coated onto 100% cotton fabric. This was accomplished by soaking swatches of the material for about 2 minutes at ambient temperature in a bath containing 5 g of the polysiloxane, 70 mL of ethanol, and 40 mL of water. The swatches were cured at 130° C. in air for 20 minutes, then soaked in 1.5% liquid detergent for 15 minutes at ambient temperature, and then rinsed thoroughly with water. […] An iodometric/thiosulfate titration indicated a chlorine loading on the cotton material of about 0.42%.
Finally, a wash test was performed on swatches of cotton containing the monomer 3-triethoxysilylpropyl-5,5-dimethylhydantoin coating and the polysiloxane coating, each chlorinated and unchlorinated, for comparison purposes. Two treatment baths were prepared, one containing an 8% solution of 3-triethoxysilylpropyl-5,5-dimethylhydantoin in a 50% solution of ethanol in water, the other containing an 8% solution of siloxane polymer prepared as described above in a 66.7% solution of ethanol in water. Identical cotton swatches were soaked in the two baths for 2.5 minutes at ambient temperature, cured in air at 130° C. for 20 minutes, soaked in 1.5% liquid detergent at ambient temperature for 15 minutes, rinsed thoroughly with water, and dried in air at 50° C. for 30 minutes. Then one-half of the swatches of each type were chlorinated by soaking them in 5% CLOROX at ambient temperature for 45 minutes. These chlorinated samples were rinsed thoroughly with water and dried in air at 50° C. for 30 minutes to remove all occluded free chlorine. Iodometric/thiosulfate titrations were performed on representative samples to determine initial chlorine loadings. The average chlorine loading for the silane monomer-coated samples was 0.61%; for the siloxane polymer-coated samples, the average chlorine loading was 0.40%. Then all types of coated swatches were subjected to laundry washing cycles using AATCC Test Method 61 (Test 2A Procedure). Samples were evaluated after 5, 10, and 50 washing cycles for retention of the coatings. Those samples not chlorinated before washing were chlorinated by the procedure described above in order to assess how much chlorine could be loaded after variable numbers of washing cycles. Those chlorinated before washing were divided into two groups with half being assessed for chlorine loading without rechlorination, the other half being rechlorinated and then assessed for chlorine loading. Three observations are clearly evident from the data in Table 3. First, both the silane and the siloxane coatings are partially lost upon successive washings. Second, prechlorination reduces the rate of loss, probably due to increasing the hydrophobicity of the surface, thus reducing the rate of hydrolysis loss of the siloxane coatings. Third, the siloxane coating, which is not chlorinated to as high a level as the silane one upon initial chlorination, is lost at a slower rate than is the silane coating. For all of the coatings, at least partial biocidal efficacy would be regenerated upon rechlorination after 50 washing cycles. […]

[2] = tested on: Escherichia coli (ATCC 2666); assay: Challenge of treated cotton swatches, modified AATCC Method 100; format: cell-based; conditions: contact time interval 60-120 minutes
Protocol: (§1) Treated cotton swatches were challenged with S. aureus (ATCC 6538) and Escherichia coli (ATCC 2666) at a concentration of between 10^8 and 10^9 CFU/mL in pH 7 phosphate buffer solution using a modified version of AATCC Method 100. The swatches were quenched with 0.02 N sodium thiosulfate solution at contact times of 10, 30, 60, and 120 min. Serial dilutions of the solutions contacting the swatches were plated on nutrient agar, incubated for 48 hours at 37° C., and plate counts were made to determine the presence of viable bacteria. […] The control sample (cotton soaked in 10% bleach, rinsed, and dried) gave only a 0.4 log reduction at 30 minutes. […] The control sample (cotton soaked in 10% bleach, rinsed, and dried) gave a 0 log reduction at 120 minutes.

S. aureus (ATCC 6538) = assay: as above; format: cell-based; conditions: coated chlorinated cotton swatches, contact time interval 10-30 minutes, pH 7 phosphate buffer
Protocol: as §1

[3] = tested on: spores of Bacillus subtilis; assay: Anti Bacillus spore activity of chlorine charged coated surfaces; format: cell-based; conditions: 96 hours
Protocol: Soft and hard surfaces were treated by exposure to solutions of 3-triethoxysilylpropyl-5,5-dimethylhydantoin, prepared as described in Example 1, and charged with chlorine as described in Example 11. Challenge inocula for the detection of activity versus bacterial spores were prepared from suspensions of spores of Bacillus subtilis. Recovery of viable organisms from challenged surfaces was done on TSA plates, and enumeration was accomplished by the plate dilution method.

## CCO[Si](CCCN1C(=O)NC(C)(C)C1=O)(OCC)OCC [3-triethoxysilylpropyl-5,5-dimethylhydantoin]
[1]; PVC (Example 12)
  chlorine on hard surface: 4.1 μg per cm^2
[1]; cotton, 8% treatment bath, cured 130° C. 20 min, 5% CLOROX 45 minutes
  average initial chlorine loading before washing: 0.61%
[1]; cotton, KSCN in treatment bath
  average chlorine loading on the swatches: 0.61±0.14%
[1]; cotton
  chlorine content: approximately 4000 ppm Cl^+
[1]; cotton, without KSCN
  average chlorine loading on the swatches: 0.49±0.07%
[1]; marble tile
  chlorine bound to hard surface: 6.9 μg Cl^+ per square cm
[1]; marble tiles (Example 12)
  chlorine on hard surface: 6.9 μg per cm^2
[1]; porcelain tile
  chlorine bound to hard surface: 3.3 μg Cl^+ per square cm
[1]; rayon fabrics (Example 12)
  chlorine concentration on soft surface: 4000 ppm
[1]; sponge slabs
  chlorine content: 1000-2000 ppm
[1]; synthetic fibers (Example 12)
  chlorine concentration on soft surface: approximately 800 ppm
[2]
  log reduction of E. coli: > 5.9 logs
S. aureus (ATCC 6538)
  log reduction of S. aureus: > 5.7 logs
[3]; cellulose sponge
  reduction in viable B. subtilis spore counts: > 5 logs
[3]; cotton and polyester
  reduction in viable B. subtilis spore counts: > 2 logs
[3]; hard surfaces (marble, vinyl, porcelain)
  reduction in viable B. subtilis spore counts: up to 4 logs
